# Results as given in patent US20150080380A1, “Therapeutic Uses” (GLAXOSMITHKLINE INTELLECTUAL PROPERTY DEVELOPMENT LIMITED, priority 2012, published 2015).
# Like-named read-outs stand apart in the source and are kept apart here.
# Assays:
# OPC differentiation = experiment: Oligodendrocyte precursor cell (OPC) differentiation assay (MBP immunocytochemistry); assay type: cell-based, rat; conditions: for EC50: Rattus norvegicus, Oligodendrocyte precursor cell
# Experimental: The effects of small-molecule inverse agonists and neutral antagonists of histamine receptor 3 (H3R) on OPC differentiation were determined using the following assay.
# The enriched OPC were obtained from dissecting 2-d-old rat pups forebrain. The pups were anesthetized and decapitated. Then the skull was cut with microdissecting scissors and the cortex was taken out with Dumont forceps. The meninges were removed with fine tips. After repeated trituration of the cortex through cell strainer, cells were re-suspended with the culture media consisted of DMEM supplemented with 20% Fetal bovine serum (Invitrogen, Carlsbad, Calif.), glutamine (4 mM, (Invitrogen), and plated onto poly-D-lysine (PDL, […] for 1 h, Sigma, St. Louis, Mo.)-coated T75 flasks. The resulting cultures were fed with fresh culture media twice per week and almost all the neurons will die due to the high concentration of serum in one week. Then the mixed glial cells were subjected to a series shake-off procedure to obtain pure OPCs two weeks later. Specifically, the mixed glial cells were shaken initially for 1 hour at 100 rpm to remove microglia and shaken for 20-22 hours at 37° C. at 200 rpm to enrich OPCs. OPCs were collected by centrifugation at 1200 rpm for 5 min, re-suspended in basal chemically defined medium (BDM). BDM consisted of DMEM supplemented with N2 medium (100×, Invitrogen), glutamine (4 mM, Invitrogen), BSA (0.1 mg/ml, Sigma), hydrocortisone (20 nM, Sigma), selenium (30 nM, Sigma) and biotin (10 nM, Sigma). OPCs were plated on poly-ornithine (PO, 50 μg/ml for 1 hr, Sigma)-coated culture dishes and maintained in BDM supplemented with bFGF (10 ng/ml, Invitrogen) and PDGF (10 ng/ml, PeproTech, Rocky Hill, N.J.) before experimental manipulation. OPCs were 95% pure judged by A2B5+ staining.
# To initiate OPC differentiation, OPCs were firstly treated with 0.05% Trypsin/EDTA, and seeded into PO-coated 384-mini well plate at a density of 2,000 to 5,000 cells/well. Each test compound was dissolved in DMSO at the concentration of 10 mM for the assay. Compounds at different concentrations (full dose curve, 0.3 nM-10 uM) were added into the OPC culture in duplicates with Echo machine (Thermo, Waltham, Mass.). OPCs were cultured in BDM supplemented with N-acetyl-L-cystenine (30 μM, Sigma) to differentiate into mature oligodendrocytes for 4 days. BDM comprise DMEM (Invitrogen), N2 (100×, Invitrogen), L-Glu (50×, Invitrogen), Sodium Pyruvate (100×, Invitrogen), BSA (0.1%, Sigma), Biotin (10 nM, Sigma), hydrocortisone (10 nM, Sigma). The resulting cultures were fixed with 4% polyformaldehyde (Sigma) and samples were blocked with the blocking buffer (Donkey Serum 3%, Sigma; Triton X-100 0.04%, Sigma). Then fixed cells were incubated in primary antibodies (anti-myelin basic protein, MBP antibody, 600× dilution in blocking buffer) overnight at 4° C., washed thoroughly with PBS and then incubated with Alexa 488-labeled secondary antibody (Molecular Probes, Invitrogen) for 2 h at R.T; then washed thoroughly with PBS and stained with Dapi (1 ug/ml, Sigma),
# The full-plate immunocytochemistry staining was read by an automatic image-based analysis system-Cellomics (Thermo) and the raw data for each well was acquired as percentage of MBP+ population as follows: Pictures of eight fields per well were captured and analyzed quantitatively; the well data is the average of 8 fields. The intensity of anti-MBP staining in the cytosol was used as the criteria of positive objects. The threshold of positive objects was set based on the average intensity of the positive control well, for which triiodothyronine (15 nM) was used. Then the data was analyzed and presented as fold change of the number of the vehicle control well. Graphs were generated by softwares: Microsoft Excel and IDBS XL fits. The curve fitting was performed with software XL fits to derive EC50 of the positive compounds.
# All data except FIG. 1 are given as mean±standard error of the mean (SEM). […]
# [1] = tested on: MAG and MBP expression in OPCs; experiment: Western blot of mature oligodendrocyte markers in differentiating OPCs; assay type: cell-based, rat; conditions: differentiating oligodendrocytes after treatment
# Experimental: The antibodies used for immunoblot and immunocytochemistry experiments were rabbit anti-myelin basic protein (MBP, Millipore, Billerica, Mass.), mouse anti-myelin-associated glycoprotein (MAG, abcam, Cambridge, Mass.).
# After treatments, OPCs were washed twice with ice-cold PBS and total cell lysates were harvested in RIPA lysis buffer (50 mM Tris-HCl, pH 7.5, 1 mM EDTA, 1 mM EGTA, 1 mM sodium orthovanadate, 50 mM sodium fluoride, 0.1% 2-mercaptoethanol, 1% triton X-100 and proteases inhibitor cocktail). The lysates were briefly sonicated and stored at −80° C. before Western analysis. The BCA Protein Assay Reagent (PIERCE, Thermo) was performed to determine protein concentration. 15 μg of total protein per sample was aliquoted, boiled for 5 min after being mixed with 2×SDS buffer (125 mM Tris-HCl, 4% SDS, 20% glycerol, 100 mM DTT) and separated by SDS-PAGE on Bis-Tris mini-gels (Invitrogen). Separated proteins were then transferred to nitrocellulose membranes and blocked in 5% milk/TBS-0.1% Tween for 1 h at room temperature. Membranes were then incubated in the presence of primary antibodies diluted in 5% milk/TBS-0.1% Tween overnight at 4° C. The following day, membranes were washed 3 times for 5 min with TBS-0.1% Tween and incubated for 1 h at room temperature in 5% milk/TBS-0.1%. […]
Compound,"EC50 (OPC differentiation; five experiments (n=5), FIG. 3b, read-out: EC50, promotion of OPC differentiation)","EC50 (OPC differentiation; two experiments (n=2), FIG. 3a, read-out: EC50, promotion of OPC differentiation)","MBP-positive cells (OPC differentiation; at 3 uM, n=5, FIG. 3b)",expression levels of MAG and MBP (western blot) [1],"EC50 (OPC differentiation; 96 h, 0.3 nM-10 uM, 4 days, FIG. 1, read-out: EC50, promotion of OPC differentiation (MBP+ population))"
"O=C1CCCN1c1ccc(Oc2ccc3c(c2)CCN(C2CCC2)CC3)nc1 [Example compound 1, 1-{6-[(3-cyclobutyl-2,3,4,5-tetrahydro-1H-3-benzazepin-7-yl)oxy]-3-pyridinyl}-2-pyrrolidinone]",159 ± 57 nM,118 ± 49 nM,up to 1.8±0.1 folds of control,increased expression levels,–
"c1cc2c(cc1-c1noc(CC3CCN(C4CCC4)CC3)n1)OCO2 [Example compound 2, 3-(benzo[d][1,3]dioxol-5-yl)-5-((1-cyclobutylpiperidin-4-yl)methyl)-1,2,4-oxadiazole]",–,–,–,significant increase,25 nM
